This is an account of results in patent publication US20230167118A1, “DEGRADATION OF BRUTON'S TYROSINE KINASE (BTK) BY CONJUGATION OF BTK INIDBITORS WITH E3 LIGASE LIGAND AND METHODS OF USE” (BEIGENE, LTD., priority 2020, published 2023).

One experiment has as its target T1, BTK (Homo sapiens, UniProt Q06187).
T1 construct: High control=Cell group with added DMSO and without compound, indicating microplate readings without BTK degradation; endogenous in cells; host or cells: TMD-8 cells
Put plainly: Cell Degradation: BTK degradation in TMD-8 cells, HTRF assay. It is filed as cell-based. As to conditions: 6 h treatment, IC50 (DC50) of BTK degradation. Here is the method:
TMD-8 cells are treated with compounds in 0.2% DMSO, dilution is done according to the following protocol: (1) make 500× stock solution in DMSO from 1 mM by 6-fold dilution, total 8 doses were included; (2) make 2× solution in cell culture medium by transferring 0.5 μl 500× stock solution into 125 μl medium; (3) 15 μl of 2× solution is added to cells and incubate for 6 h.
After 6 h treatment, add […] 4×lysis buffer to each well; seal the plate and incubate 30 min at room temperature on a plate shaker; Once the cells are lysed, 16 μL of cell lysate are transferred to a PE 384-well HTRF detection plate; 4 μL of pre-mixed HTRF antibodies are added to each well; Cover the plate with a plate sealer, spin 1000 rpm for 1 min, Incubate overnight at room temperature; Read on BMG PheraStar with HTRF protocol (337 nm-665 nm-620 nm).
The inhibition (degradation) percentage of the compound was calculated by the following equation: Inhibition percentage of Compound=100-100× (Signal-low control)/(High control-low control), wherein signal=each test compound group
Dmax is the maximum percentage of inhibition (degradation).
The IC50 (DC50) value of a compound can be obtained by fitting the following equation
Y=Bottom+(TOP-Bottom)/(1+((IC50/X)^hillslope))
(§1) Wherein, X and Y are known values, and IC50, Hillslope, Top and Bottom are the parameters obtained by fitting with software. Y is the inhibition percentage (calculated from the equation), X is the concentration of the compound; IC50 is the concentration of the compound when the 50% inhibition is reached. The smaller the IC50 value is, the stronger the inhibitory ability of the compound is. Vice versa, the higher the IC50 value is, the weaker the ability the inhibitory ability of the compound is; Hillslope represents the slope of the fitted curve, generally around 1 *; Bottom represents the minimum value of the curve obtained by data fitting, which is generally 0%±20%; Top represents the maximum value of the curve obtained by data fitting, which is generally 100%±20%. The experimental data were fitted by calculating and analyzing with Dotmatics data analysis software.

A further experiment deals with HEK-293 cells. Put plainly: HEK-293 Cytotoxicity Assay (CellTiter-Glo). It is filed as cell-based. Particulars: Homo sapiens, HEK293, 72 h incubation, CellTiter-Glo luminescence. Here is the method:
HEK-293 Cytotoxicity Assay
HEK-293 cells are treated with compounds diluted in 0.2% DMSO, dilution is done according to the following protocol: (1) make 500× stock solution in DMSO from 5 mM by 4-fold dilution, total 8 doses were included; (2) make 2× solution in cell culture medium by transferring 0.5 ul 500× stock solution into 125 ul medium; (3) 50 ul of 2× solution is added to cells and incubate for 72 h.
Add 25 μl of the CellTiter-Glo®Reagent [I (Promega)—Cat No. G7572] to each well in the 96-well plate. Mix contents for 2 minutes on an orbital shaker to induce cell lysis. Allow the plate to incubate at room temperature for 10 minutes to stabilize luminescent signal. Record luminescence on BMG PheraStar with luminescence protocol.
as §1, with “The IC50 value of a compound can be obtained by fitting the following equation. Y=Bottom+(TOP−Bottom)/(1+((IC50/X)^hillslope)) Wherein,” for “Wherein,”, “1*;” for “1 *;”
(Cellular ATP, detected with luciferase, serves as a proxy for viable cell number.)

Molecules are shown by their SMILES. Some results are limits rather than exact numbers.

T1 sequence (Q06187 whole entry): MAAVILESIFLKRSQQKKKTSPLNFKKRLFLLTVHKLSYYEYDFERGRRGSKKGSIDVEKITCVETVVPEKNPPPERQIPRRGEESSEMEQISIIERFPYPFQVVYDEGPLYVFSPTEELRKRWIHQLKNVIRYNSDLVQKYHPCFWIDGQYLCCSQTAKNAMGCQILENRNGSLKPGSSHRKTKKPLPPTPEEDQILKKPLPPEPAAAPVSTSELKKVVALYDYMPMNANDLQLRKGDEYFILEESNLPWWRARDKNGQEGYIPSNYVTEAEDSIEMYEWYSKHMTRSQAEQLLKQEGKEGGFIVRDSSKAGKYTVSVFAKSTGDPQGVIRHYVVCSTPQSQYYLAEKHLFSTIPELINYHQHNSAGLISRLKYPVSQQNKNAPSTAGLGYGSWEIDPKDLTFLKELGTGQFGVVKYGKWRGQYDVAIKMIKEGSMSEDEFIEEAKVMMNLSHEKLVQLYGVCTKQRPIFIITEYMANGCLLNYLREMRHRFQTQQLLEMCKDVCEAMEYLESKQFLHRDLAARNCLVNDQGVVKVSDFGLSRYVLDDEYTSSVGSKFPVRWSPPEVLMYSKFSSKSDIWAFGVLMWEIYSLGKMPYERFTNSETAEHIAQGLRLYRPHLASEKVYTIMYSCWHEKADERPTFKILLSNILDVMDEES

For `COc1ccc(C(=O)N2CCC(c3ccc(-c4cc5c(-c6ccc(CNC(=O)c7nc(C(C)(C)C)no7)c(C)c6)ncnc5[nH]4)cc3)CC2)cc1N1CCC(=O)NC1=O` [Example 12, 3-(tert-butyl)-N-(4-(6-(4-(1-(3-(2,4-dioxotetrahydropyrimidin-1(2H)-yl)-4-methoxybenzoyl)piperidin-4-yl)phenyl)-7H-pyrrolo[2,3-d]pyrimidin-4-yl)-2-methylbenzyl)-1,2,4-oxadiazole-5-carboxamide], it took 2 nM to reach half-maximal degradation at BTK (DC50). The half-maximal inhibitory concentration (IC50) with HEK-293 cells was over 10000 nM.
As for `Cc1cc(-c2ncnc3[nH]c(-c4ccc(C5CCN(CCC6CCN(c7ccc(N8CCC(=O)NC8=O)c(C)n7)CC6)CC5)cc4)cc23)ccc1CNC(=O)c1nc(C(C)(C)C)no1` [Example 13, 3-(tert-butyl)-N-(4-(6-(4-(1-(2-(1-(5-(2,4-dioxotetrahydropyrimidin-1(2H)-yl)-6-methylpyridin-2-yl)piperidin-4-yl)ethyl)piperidin-4-yl)phenyl)-7H-pyrrolo[2,3-d]pyrimidin-4-yl)-2-methylbenzyl)-1,2,4-oxadiazole-5-carboxamide], half-maximal degradation at BTK (DC50) was put at 2.3 nM. In the experiment on HEK-293 cells, this compound yielded a half-inhibitory concentration (IC50) of 1860 nM.
For the compound `Cc1cc(-c2ncnc3[nH]c(-c4ccc(N5CCN(CC6CCN(c7ccc(N8CCC(=O)NC8=O)cc7)CC6)CC5)nc4)cc23)ccc1[C@@H](C)NC(=O)c1nc(C(C)(C)C)no1` [Example 14, (R)-3-(tert-butyl)-N-(1-(4-(6-(6-(4-((1-(4-(2,4-dioxotetrahydropyrimidin-1(2H)-yl)phenyl)piperidin-4-yl)methyl)piperazin-1-yl)pyridin-3-yl)-7H-pyrrolo[2,3-d]pyrimidin-4-yl)-2-methylphenyl)ethyl)-1,2,4-oxadiazole-5-carboxamide], the DC50 at BTK came to 0.72 nM. This compound also showed an IC50 in the experiment on HEK-293 cells of over 10000 nM.
For `Cc1cc(-c2ncnc3[nH]c(-c4ccc(C5CCN(CCC6CCN(c7ccc(N8CCC(=O)NC8=O)c(F)c7)CC6)CC5)cc4)cc23)ccc1CNC(=O)c1nc(C(C)(C)C)no1` [Example 15, 3-(tert-butyl)-N-(4-(6-(4-(1-(2-(1-(4-(2,4-dioxotetrahydropyrimidin-1(2H)-yl)-3-fluorophenyl)piperidin-4-yl)ethyl)piperidin-4-yl)phenyl)-7H-pyrrolo[2,3-d]pyrimidin-4-yl)-2-methylbenzyl)-1,2,4-oxadiazole-5-carboxamide], in that order: 1 nM and 1230 nM.
For `CC(C)(C)c1noc(C(=O)NCc2ccc(-c3ncnc4[nH]c(-c5cnn(C6CCN(CC7CCN(c8ccc(N9CCC(=O)NC9=O)cc8)CC7)CC6)c5)cc34)cc2F)n1` [Example 16, 3-(tert-butyl)-N-(4-(6-(1-(1-((1-(4-(2,4-dioxotetrahydropyrimidin-1(2H)-yl)phenyl)piperidin-4-yl)methyl)piperidin-4-yl)-1H-pyrazol-4-yl)-7H-pyrrolo[2,3-d]pyrimidin-4-yl)-2-fluorobenzyl)-1,2,4-oxadiazole-5-carboxamide], in that order: 0.55 nM and over 10000 nM.
For `Cc1cc(-c2ncnc3[nH]c(-c4ccc(C5CCN(CC6CCN(c7ccc8c(c7)CN(C7CCC(=O)NC7=O)C8=O)CC6)CC5)cc4)cc23)ccc1CNC(=O)c1nc(C(C)(C)C)no1` (centres unmarked) [Example 17, 3-(tert-butyl)-N-(4-(6-(4-(1-((1-(2-(2,6-dioxopiperidin-3-yl)-1-oxoisoindolin-5-yl)piperidin-4-yl)methyl)piperidin-4-yl)phenyl)-7H-pyrrolo[2,3-d]pyrimidin-4-yl)-2-methylbenzyl)-1,2,4-oxadiazole-5-carboxamide], in that order: 3.2 nM and over 10000 nM.
For the compound `Cc1cc(-c2ncnc3[nH]c(-c4ccc(N5CCN(CC6CCN(c7ccc(N8CCC(=O)NC8=O)cc7)CC6)CC5)cc4)cc23)ccc1CNC(=O)c1nc(C(C)(C)C)no1` [Example 18, 3-(tert-butyl)-N-(4-(6-(4-(4-((1-(4-(2,4-dioxotetrahydropyrimidin-1(2H)-yl)phenyl)piperidin-4-yl)methyl)piperazin-1-yl)phenyl)-7H-pyrrolo[2,3-d]pyrimidin-4-yl)-2-methylbenzyl)-1,2,4-oxadiazole-5-carboxamide], on BTK, it took 1.7 nM to reach half-maximal degradation (DC50). In addition, in the experiment on HEK-293 cells, the concentration for half-maximal inhibition (IC50) was over 10000 nM.
For `Cc1cc(-c2ncnc3[nH]c(-c4ccc(N5CCN(CC6CCN(c7ccc(N8CCC(=O)NC8=O)cc7)CC6)CC5)cn4)cc23)ccc1[C@@H](C)NC(=O)c1nc(C(C)(C)C)no1` [Example 19, (R)-3-(tert-butyl)-N-(1-(4-(6-(5-(4-((1-(4-(2,4-dioxotetrahydropyrimidin-1(2H)-yl)phenyl)piperidin-4-yl)methyl)piperazin-1-yl)pyridin-2-yl)-7H-pyrrolo[2,3-d]pyrimidin-4-yl)-2-methylphenyl)ethyl)-1,2,4-oxadiazole-5-carboxamide] the same measures were 0.72 nM and over 10000 nM.
At BTK, `Cc1cc(-c2ncnc3[nH]c(-c4ccc(N5CCN(CC6CCN(c7ccc(N8CCC(=O)NC8=O)cc7)CC6)CC5)cc4)cc23)ccc1[C@@H](C)NC(=O)c1nc(C(C)(C)C)no1` [Example 20, (R)-3-(tert-butyl)-N-(1-(4-(6-(4-(4-((1-(4-(2,4-dioxotetrahydropyrimidin-1(2H)-yl)phenyl)piperidin-4-yl)methyl)piperazin-1-yl)phenyl)-7H-pyrrolo[2,3-d]pyrimidin-4-yl)-2-methylphenyl)ethyl)-1,2,4-oxadiazole-5-carboxamide] yielded a DC50 of 1.4 nM. This compound also gave an IC50 with HEK-293 cells of over 10000 nM.
For `C[C@@H](NC(=O)c1nc(C(C)(C)C)no1)c1ccc(-c2ncnc3[nH]c(-c4ccc(N5CCN(CC6CCN(c7ccc(N8CCC(=O)NC8=O)cc7)CC6)CC5)cc4)cc23)cc1F` [Example 21, (R)-3-(tert-butyl)-N-(1-(4-(6-(4-(4-((1-(4-(2,4-dioxotetrahydropyrimidin-1(2H)-yl)phenyl)piperidin-4-yl)methyl)piperazin-1-yl)phenyl)-7H-pyrrolo[2,3-d]pyrimidin-4-yl)-2-fluorophenyl)ethyl)-1,2,4-oxadiazole-5-carboxamide], in that order: 1.7 nM and over 10000 nM.
For `Cc1cc(-c2ncnc3[nH]c(-c4ccc(C5CCN(CCC6CCN(c7ccc(N8CCC(=O)NC8=O)c(C)c7)CC6)CC5)cc4)cc23)ccc1CNC(=O)c1nc(C(C)(C)C)no1` [Example 22, 3-(tert-butyl)-N-(4-(6-(4-(1-(2-(1-(4-(2,4-dioxotetrahydropyrimidin-1(2H)-yl)-3-methylphenyl)piperidin-4-yl)ethyl)piperidin-4-yl)phenyl)-7H-pyrrolo[2,3-d]pyrimidin-4-yl)-2-methylbenzyl)-1,2,4-oxadiazole-5-carboxamide] the same measures were 2.3 nM and 1560 nM.
For `CC(C)(C)c1noc(C(=O)NCc2ccc(-c3ncnc4[nH]c(-c5ccc(C6CCN(CC7CCN(c8ccc(N9CCC(=O)NC9=O)cc8)CC7)CC6)cc5)cc34)cc2F)n1` [Example 23] the same measures were 0.87 nM and over 10000 nM.
`Cc1cc(-c2ncnc3[nH]c(-c4ccc(C5CCN(CCC6CCN(c7ccc(N8CCC(=O)NC8=O)c(Cl)c7)CC6)CC5)cc4)cc23)ccc1CNC(=O)c1nc(C(C)(C)C)no1` [Example 24, 3-(tert-butyl)-N-(4-(6-(4-(1-(2-(1-(3-chloro-4-(2,4-dioxotetrahydropyrimidin-1(2H)-yl)phenyl)piperidin-4-yl)ethyl)piperidin-4-yl)phenyl)-7H-pyrrolo[2,3-d]pyrimidin-4-yl)-2-methylbenzyl)-1,2,4-oxadiazole-5-carboxamide] returned a half-maximal degradation concentration (DC50) at BTK of 4.8 nM. In addition, the IC50 in the experiment with HEK-293 cells turned out to be 4650 nM.

Broadly, the DC50 is the concentration at which degradation of the target reaches its halfway point. Higher therefore signals degradation only at high concentration. What is called IC50 is the concentration at which inhibition is half-maximal. The low end stands for higher potency, the high end for lower potency.
